The values that follow come from US20180369203A1, “METHODS OF TREATING CANCER BY ADMINISTERING A MEK INHIBITOR IN COMBINATION WITH A PROTEASOME INHIBITOR” (The Jackson Laboratory, priority 2015, published 2018).

Assay [1] has as its system V5-TOR1AIP2, V5-RPL3, V5-RPL15. Put plainly: Levels and ubiquitination of V5-tagged proteins in HEK293T cells. The class given is cell-based. The note with it: 500 nM MG132 co-treated with 20 nM AZD6244, 8 hr.
The test system of the next assay is c-MYC, RPL15, RPL3. Put plainly: Endogenous c-MYC, RPL15 and RPL3 proteins in A2058 cells. The class given is cell-based, human. The conditions noted are these: 20 nM AZD6244 co-treated with 500 nM MG132. The protocol: (A) GFP and GFP-GR plasmids were co-transfected into HEK293T cells followed by treatments with 20 nM AZD6244, 20 μM U0126, or 200 nM 17-DMAG for 4 hr. (B) GFP-GR plasmids were co-transfected into HEK293T cells with HA-Ub-K48 plasmids, which encode a mutant ubiquitin that can be conjugated to protein substrates only via lysine 48. Following treatments with 20 nM AZD6244 or 200 nM 17-DMAG for 4 hr, GFP-GR proteins were precipitated and ubiquitination was detected using anti-HA antibodies. (C) Denatured firefly luciferases were incubated with lysates of A2058 cells treated with DMSO or 20 nM AZD6244 (mean±SD, n=4, ANOVA). (D) A2058 cells were treated with 20 nM AZD6244, and ubiquitinated proteins were detected in both detergent-soluble and -insoluble fractions using Lys48-specific ubiquitin antibodies. (E) A2058 cells stably expressing LacZ or HSF1^S326D were treated with 20 nM AZD6244 for 8 hr. (F) C57BL/6J mice were i.p. injected with DMSO or AZD6244 three times a week for 2 weeks. S: spleen; K: kidney; L: liver. (G) Experimental procedures of MS-based quantitation of ubiquitinated peptides, two technical replicates per treatment. […] (Q) Endogenous RPL15 and RPL3 proteins were detected in A2058 cells treated with 20 nM AZD6244 alone or co-treated with 500 nM MG132. (R) Endogenous RPL15 and RPL3 proteins were detected in A2058 cells stably expressing LacZ or HSF1^S326D with AZD6244 treatment. […]

Assay [2] deals with A2058 cells. Description: Viable A2058 cells by CellTiter Blue with amyloid blockers plus inhibitors. The conditions noted are these: 10 μM ThT pre-incubation 6 hr, then inhibitors 24 hr. The class given is cell-based, human. As to the method: (§1) FIGS. 5A-Y show MEK and proteasome inhibition provoke protein aggregation and amyloidogenesis. (A-B) WM115 cells treated with 20 nM AZD6244, 100 nM Bortezomib, or both for 24 hr were stained with Lys48-specific ubiquitin antibodies. Arrowheads mark ubiquitin-positive aggregates. Scale bar: 10 μm. Amounts of aggregates per cell were quantitated using ImageJ (median, n≥100, ANOVA). (C-F) Following transfection with polyQ79 plasmids alone or with both polyQ79 and HSF1^S326D plasmids for one day, HEK293T cells were treated with inhibitors as described in (A-B). Cells were either analyzed for aggregate size or stained with 10 μM ThT. (G) Treated tumor cell lines were stained with 10 μM ThT. Geometric means were used to calculate fold changes in ThT fluorescence intensity and the log 2(FC) values were presented as a heat map. […] Following treatments, AOs were quantitated by ELISA using A11 antibodies (mean±SD, n=3, ANOVA). (I) Intrinsic AOs were detected in human tumor cell lines (mean±SD, n=3, ANOVA). […] Amyloids were quantitated by ELISA (mean±SD, n=3, Student's t-test). […] AF formation was monitored by ThT binding (mean±SD, n=3, ANOVA). […] Amyloids were quantitated (mean±SD, n=3, Student's t-test). […] Viable cells were quantitated by CellTiter® blue (mean±SD, n=6, Student's t-test). […] Viable cells were quantitated (mean±SD, n=6, ANOVA). […]
This figure is related to FIG. 5. […] (C) Quantitation of protein aggregate size. […]

Assay [3] relates to A2058 cells. Description: Amyloid quantitation by ELISA in A2058 cells pre-incubated with ThT. Type of assay: cell-based, human. The conditions noted are these: 10 μM ThT pre-incubation 6 hr, then inhibitors 24 hr. The protocol: as §1
To quantitate amyloid fibrils, detergent-insoluble proteins were extracted. […]
A general note: An ELISA detects its analyte on a solid surface through an enzyme-linked reagent.

Peptide text beside a SMILES is read from it. * marks the point of attachment. Cbz = O=C(OCc1ccccc1)*

With `CC(C)C[C@@H](C=O)NC(=O)[C@H](CC(C)C)NC(=O)[C@H](CC(C)C)NC(=O)OCc1ccccc1` [MG132] (Cbz-Leu-Leu-Leu-aldehyde), the “V5-RPL15 depletion by AZD6244” value in assay [1] was “prevented”. The “depletions of endogenous RPL15 and RPL3 by AZD6244” value with c-MYC, RPL15, RPL3 was “prevented”.
In the case of `Cc1ccc2c(c1)sc(-c1ccc(N(C)C)cc1)[n+]2C.[Cl-]` [ThT, Thioflavin T], the “improvement of cellular growth and survival” value in the assay on A2058 cells [2] stood at 50%. The “amyloid induction by inhibitors” value in the assay with A2058 cells [3] was “suppressed”.
